Reference: patent US9346798B2, “Dihydrobenzoxazine and tetrahydroquinoxaline sodium channel inhibitors” (AMGEN INC., priority 2012, dated 2016)

Key:
Type in all cases: cell-based
[1] = biological target: T1, Nav 1.7 (Homo sapiens (Human), UniProt Q15858); test: Nav 1.7 in vitro assay, IonWorks Quattro (IWQ) population patch-clamp; conditions: HEK 293 cells stably transfected with Nav 1.7; 26th pulse to -20 mV
[2] = biological target: T1, Nav 1.7; test: Nav 1.7 in vitro PX assay, PatchXpress whole cell voltage clamp; conditions: HEK 293 cells stably transfected with human Nav1.7; for IC50: partially inactivated state (20 to 50% inactivation); for inhibition at 4.9 µM: HEK293, values marked *, read-out: Nav 1.7 PX percent inhibition at 4.9 μM
How it was run: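 Partially inactivated channels (20–50% inactivation at holding potential) were probed on automated patch clamp in stably transfected HEK293 cells, stepping to −10 mV for 20 msec every 10 s (0.1 Hz).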

[3] = biological target: Nav 1.5 (Homo sapiens (Human), UniProt Q14524); test: Nav 1.5 in vitro assay, IonWorks Quattro (IWQ) population patch-clamp; conditions: HEK 293 cells stably transfected with Nav 1.5; 26th pulse to -20 mV
Chain of Nav 1.5 (Q14524 whole entry): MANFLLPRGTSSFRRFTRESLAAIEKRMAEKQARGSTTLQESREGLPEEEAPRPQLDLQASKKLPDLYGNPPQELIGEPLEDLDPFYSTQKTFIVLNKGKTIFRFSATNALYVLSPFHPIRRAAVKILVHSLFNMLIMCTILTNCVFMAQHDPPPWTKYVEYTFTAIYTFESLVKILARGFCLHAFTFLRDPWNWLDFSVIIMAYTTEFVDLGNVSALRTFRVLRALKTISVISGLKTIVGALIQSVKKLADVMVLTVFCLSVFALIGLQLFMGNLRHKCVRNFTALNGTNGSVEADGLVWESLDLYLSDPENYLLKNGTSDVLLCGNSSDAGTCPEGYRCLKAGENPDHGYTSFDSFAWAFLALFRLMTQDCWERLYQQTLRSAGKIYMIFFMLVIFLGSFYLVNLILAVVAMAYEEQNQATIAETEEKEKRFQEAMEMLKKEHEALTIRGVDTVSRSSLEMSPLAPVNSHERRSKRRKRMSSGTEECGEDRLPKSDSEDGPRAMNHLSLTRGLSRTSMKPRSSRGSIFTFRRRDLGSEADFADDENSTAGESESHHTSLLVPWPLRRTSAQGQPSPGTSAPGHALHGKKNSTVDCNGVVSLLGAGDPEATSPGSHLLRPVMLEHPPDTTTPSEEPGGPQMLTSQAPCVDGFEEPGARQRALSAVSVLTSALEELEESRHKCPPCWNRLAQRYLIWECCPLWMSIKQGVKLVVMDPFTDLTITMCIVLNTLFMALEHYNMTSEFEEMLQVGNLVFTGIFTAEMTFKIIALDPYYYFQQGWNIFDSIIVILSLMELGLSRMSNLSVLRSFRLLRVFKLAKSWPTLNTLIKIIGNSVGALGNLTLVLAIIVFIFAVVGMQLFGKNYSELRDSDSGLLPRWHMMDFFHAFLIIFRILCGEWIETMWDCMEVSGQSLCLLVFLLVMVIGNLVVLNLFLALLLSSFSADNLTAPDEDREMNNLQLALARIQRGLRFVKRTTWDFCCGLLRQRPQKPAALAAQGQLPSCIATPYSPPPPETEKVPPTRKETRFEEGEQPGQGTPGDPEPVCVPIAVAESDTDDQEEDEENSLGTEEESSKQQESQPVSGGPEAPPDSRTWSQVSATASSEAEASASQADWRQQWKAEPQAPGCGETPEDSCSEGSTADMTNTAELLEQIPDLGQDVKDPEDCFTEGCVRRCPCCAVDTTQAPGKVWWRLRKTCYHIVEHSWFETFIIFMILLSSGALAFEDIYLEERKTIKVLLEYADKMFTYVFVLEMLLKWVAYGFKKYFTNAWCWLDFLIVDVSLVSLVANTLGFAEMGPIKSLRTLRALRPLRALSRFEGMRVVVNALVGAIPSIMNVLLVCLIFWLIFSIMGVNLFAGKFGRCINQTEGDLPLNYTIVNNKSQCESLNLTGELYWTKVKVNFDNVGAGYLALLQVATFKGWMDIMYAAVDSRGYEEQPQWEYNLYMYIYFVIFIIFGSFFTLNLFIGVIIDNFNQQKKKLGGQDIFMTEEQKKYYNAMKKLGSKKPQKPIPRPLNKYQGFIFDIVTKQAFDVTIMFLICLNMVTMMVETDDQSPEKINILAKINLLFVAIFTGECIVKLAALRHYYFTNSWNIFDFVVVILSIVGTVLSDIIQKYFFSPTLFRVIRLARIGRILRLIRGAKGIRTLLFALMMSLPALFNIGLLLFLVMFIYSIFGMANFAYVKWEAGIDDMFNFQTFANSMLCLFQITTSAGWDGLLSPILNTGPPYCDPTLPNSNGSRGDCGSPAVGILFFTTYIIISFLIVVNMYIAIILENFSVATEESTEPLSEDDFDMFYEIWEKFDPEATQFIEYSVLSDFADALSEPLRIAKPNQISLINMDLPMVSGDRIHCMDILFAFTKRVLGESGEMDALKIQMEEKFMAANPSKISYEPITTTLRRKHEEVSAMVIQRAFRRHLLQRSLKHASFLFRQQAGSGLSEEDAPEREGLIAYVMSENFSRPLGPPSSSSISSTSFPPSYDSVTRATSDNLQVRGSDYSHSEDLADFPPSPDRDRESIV

T1 sequence (Q15858 whole entry): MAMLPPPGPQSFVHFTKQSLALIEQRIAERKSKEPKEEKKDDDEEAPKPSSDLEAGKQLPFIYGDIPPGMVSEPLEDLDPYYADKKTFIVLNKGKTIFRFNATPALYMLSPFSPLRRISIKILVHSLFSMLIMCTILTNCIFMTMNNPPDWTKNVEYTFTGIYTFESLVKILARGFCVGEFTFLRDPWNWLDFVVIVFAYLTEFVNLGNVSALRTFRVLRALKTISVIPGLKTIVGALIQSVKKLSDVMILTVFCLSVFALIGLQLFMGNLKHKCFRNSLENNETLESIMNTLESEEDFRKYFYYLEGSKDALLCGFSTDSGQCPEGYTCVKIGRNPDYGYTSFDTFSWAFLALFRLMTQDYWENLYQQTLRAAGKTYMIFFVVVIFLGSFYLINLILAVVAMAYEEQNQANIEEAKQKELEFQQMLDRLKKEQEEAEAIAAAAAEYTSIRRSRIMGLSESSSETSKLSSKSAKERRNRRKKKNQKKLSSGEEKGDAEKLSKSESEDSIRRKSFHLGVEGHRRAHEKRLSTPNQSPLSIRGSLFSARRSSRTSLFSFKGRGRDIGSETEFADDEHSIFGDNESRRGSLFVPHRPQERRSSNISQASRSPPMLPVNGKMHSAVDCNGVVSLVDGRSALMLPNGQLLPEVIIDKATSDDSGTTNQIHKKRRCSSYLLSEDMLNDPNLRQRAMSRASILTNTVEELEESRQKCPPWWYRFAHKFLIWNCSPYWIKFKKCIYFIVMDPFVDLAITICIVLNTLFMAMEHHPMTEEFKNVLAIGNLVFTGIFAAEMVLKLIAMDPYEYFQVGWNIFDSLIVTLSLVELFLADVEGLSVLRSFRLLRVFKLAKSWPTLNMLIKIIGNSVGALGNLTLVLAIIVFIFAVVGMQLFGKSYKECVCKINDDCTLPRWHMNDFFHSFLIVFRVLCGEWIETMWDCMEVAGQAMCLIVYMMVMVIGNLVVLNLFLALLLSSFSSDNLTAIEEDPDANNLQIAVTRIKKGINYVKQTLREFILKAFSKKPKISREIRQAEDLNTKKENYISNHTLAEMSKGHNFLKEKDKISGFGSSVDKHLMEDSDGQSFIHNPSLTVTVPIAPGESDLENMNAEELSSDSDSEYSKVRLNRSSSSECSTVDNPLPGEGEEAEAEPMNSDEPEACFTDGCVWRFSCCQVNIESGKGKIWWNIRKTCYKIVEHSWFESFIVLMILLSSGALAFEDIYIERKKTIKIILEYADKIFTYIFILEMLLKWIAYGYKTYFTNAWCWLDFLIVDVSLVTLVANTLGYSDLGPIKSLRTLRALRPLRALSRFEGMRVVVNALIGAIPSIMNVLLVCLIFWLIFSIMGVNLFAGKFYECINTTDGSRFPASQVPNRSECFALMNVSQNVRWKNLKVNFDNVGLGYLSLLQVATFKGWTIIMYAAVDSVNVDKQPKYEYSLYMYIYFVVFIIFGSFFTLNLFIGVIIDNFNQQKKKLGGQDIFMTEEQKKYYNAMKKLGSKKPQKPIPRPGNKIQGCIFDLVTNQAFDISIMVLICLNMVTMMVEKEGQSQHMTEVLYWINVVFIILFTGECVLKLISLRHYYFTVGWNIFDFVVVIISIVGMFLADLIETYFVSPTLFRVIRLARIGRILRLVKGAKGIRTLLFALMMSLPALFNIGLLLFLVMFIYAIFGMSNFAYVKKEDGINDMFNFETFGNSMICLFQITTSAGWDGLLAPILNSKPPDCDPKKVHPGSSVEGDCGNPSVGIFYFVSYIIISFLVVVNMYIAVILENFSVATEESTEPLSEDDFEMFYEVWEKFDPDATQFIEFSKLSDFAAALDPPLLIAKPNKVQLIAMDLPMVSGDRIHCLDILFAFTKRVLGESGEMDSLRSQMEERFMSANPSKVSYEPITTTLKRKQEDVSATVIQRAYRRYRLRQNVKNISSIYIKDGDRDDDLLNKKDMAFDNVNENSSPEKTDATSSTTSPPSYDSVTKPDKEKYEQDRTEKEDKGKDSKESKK

SMILES	IC50 [1] [nM]	IC50 [2] [nM]	IC50 [3] [nM]	inhibition at 4.9 µM [2] [%]
N#Cc1ccccc1N1CCOc2cc(S(=O)(=O)Nc3nccs3)ccc21 [Example 58, 4-(2-Cyanophenyl)-N-(Thiazol-2-Yl)-3,4-Dihydro-2H-Benzo[B][1,4]Oxazine-7-Sulfonamide 2,2,2-Trifluoroacetate]	225	2550	6300	–
Cc1cc(N2CCOc3cc(S(=O)(=O)Nc4nccs4)ccc32)ccc1Cl [Example 156, 4-(4-Chloro-3-Methylphenyl)-N-(Thiazol-2-Yl)-3,4-Dihydro-2H-Benzo[B][1,4]Oxazine-7-Sulfonamide 2,2,2-Trifluoroacetate]	2280	2600	3930	–
CC1CN(c2ccc(C(F)(F)F)cc2C#N)c2ccc(S(=O)(=O)Nc3nccs3)cc2O1 (racemic) [Example 93, 4-(2-Cyano-4-(Trifluoromethyl)Phenyl)-2-Methyl-N-(Thiazol-2-Yl)-3,4-Dihydro-2H-Benzo[B][1,4]Oxazine-7-Sulfonamide]	78.5	566	1840	–
N#Cc1cc(C(F)(F)F)ccc1N1CCOc2cc(S(=O)(=O)Nc3nccs3)c(F)cc21 [Example 215, 4-(2-Cyano-4-(Trifluoromethyl)Phenyl)-6-Fluoro-N-(Thiazol-2-Yl)-3,4-Dihydro-2H-Benzo[B][1,4]Oxazine-7-Sulfonamide]	9.86	183	203	–
Cc1ccc(F)cc1N1CCOc2cc(S(=O)(=O)Nc3nccs3)ccc21 [Example 79, 4-(5-Fluoro-2-Methylphenyl)-N-(Thiazol-2-Yl)-3,4-Dihydro-2H-Benzo[B][1,4]Oxazine-7-Sulfonamide 2,2,2-Trifluoroacetate]	216	1180	> 10000	–
N#Cc1ccc(Cl)cc1N1CCOc2cc(S(=O)(=O)Nc3nccs3)ccc21 [Example 192, 4-(5-Chloro-2-Cyanophenyl)-N-(Thiazol-2-Yl)-3,4-Dihydro-2H-Benzo[B][1,4]Oxazine-7-Sulfonamide]	52.5	769	1610	–
O=S(=O)(Nc1ncns1)c1ccc2c(c1)OCCN2c1cccc(OC(F)(F)F)c1 [Example 35, N-(1,2,4-Thiadiazol-5-Yl)-4-(3-(Trifluoromethoxy)Phenyl)-3,4-Dihydro-2H-Benzo[B][1,4]Oxazine-7-Sulfonamide]	43.5	138	> 10000	–
O=S(=O)(Nc1ncns1)c1ccc2c(c1)OCCN2c1ccc(C(F)(F)F)cc1-c1cccnc1 [Example 21, 4-(2-(Pyridin-3-Yl)-4-(Trifluoromethyl)Phenyl)-N-(1,2,4-Thiadiazol-5-Yl)-3,4-Dihydro-2H-Benzo[B][1,4]Oxazine-7-Sulfonamide]	15.8	162	1330	–
O=S(=O)(Nc1nccs1)c1ccc2c(c1)OCCN2c1ccc(-n2cccn2)cc1 [Example 141, 4-(4-(1H-pyrazol-1-yl)phenyl)-N-(thiazol-2-yl)-3,4-dihydro-2H-benzo[b][1,4]oxazine-7-sulfonamide]	671	6420	2500	–
N#Cc1cc(-c2cccc(F)c2)ccc1N1CCOc2cc(S(=O)(=O)Nc3nccs3)ccc21 [Example 200, 4-(3-Cyano-3′-Fluoro-[1,1′-Biphenyl]-4-Yl)-N-(Thiazol-2-Yl)-3,4-Dihydro-2H-Benzo[B][1,4]Oxazine-7-Sulfonamide]	144	150	854	–
COc1ccc(N2CCOc3cc(S(=O)(=O)Nc4nccs4)ccc32)c(OC)c1 [Example 120, 4-(2,4-Dimethoxyphenyl)-N-(thiazol-2-yl)-3,4-dihydro-2H-benzo[b][1,4]oxazine-7-sulfonamide]	796	2240	> 10000	–
N#Cc1cccc(F)c1N1CCOc2cc(S(=O)(=O)Nc3nccs3)ccc21 [Example 159, 4-(2-Cyano-6-Fluorophenyl)-N-(Thiazol-2-Yl)-3,4-Dihydro-2H-Benzo[B][1,4]Oxazine-7-Sulfonamide]	1420	8150	> 10000	–
COc1cc(C#N)ccc1CN1CCOc2cc(S(=O)(=O)Nc3nccs3)ccc21 [Example 219, 4-(4-Cyano-2-Methoxybenzyl)-N-(Thiazol-2-Yl)-3,4-Dihydro-2H-Benzo[B][1,4]Oxazine-7-Sulfonamide]	5190	–	> 10000	26.2
O=S(=O)(Nc1ccc(F)cn1)c1ccc2c(c1)OCCN2c1ccc(C(F)(F)F)cc1Cl [Example 17, 4-(2-Chloro-4-(Trifluoromethyl)Phenyl)-N-(5-Fluoropyridin-2-Yl)-3,4-Dihydro-2H-Benzo[B][1,4]Oxazine-7-Sulfonamide]	3630	–	> 10000	24.1
Cn1nccc1-c1ccccc1N1CCOc2cc(S(=O)(=O)Nc3nccs3)ccc21 [Example 148, 4-(2-(1-Methyl-1H-pyrazol-5-yl)phenyl)-N-(thiazol-2-yl)-3,4-dihydro-2H-benzo[b][1,4]oxazine-7-sulfonamide]	66.5	782	> 10000	–
C[C@H]1COc2cc(S(=O)(=O)Nc3nccs3)ccc2N1c1ccc(C(F)(F)F)cc1C#N (single isomer, unassigned) [Example 98]	996	3430	> 10000	–
Cc1nsc(NS(=O)(=O)c2ccc3c(c2)OCCN3c2ccc(C(F)(F)F)cc2Cl)n1 [Example 10, 4-(2-Chloro-4-(Trifluoromethyl)Phenyl)-N-(3-Methyl-1,2,4-Thiadiazol-5-Yl)-3,4-Dihydro-2H-Benzo[B][1,4]Oxazine-7-Sulfonamide]	4610	6750	> 10000	–
Cc1ccc(N2CCOc3cc(S(=O)(=O)Nc4nccs4)ccc32)cc1C#N [Example 115, 4-(3-Cyano-4-methylphenyl)-N-(thiazol-2-yl)-3,4-dihydro-2H-benzo[b][1,4]oxazine-7-sulfonamide]	1280	5570	7730	–
COc1ccccc1N1CCOc2cc(S(=O)(=O)Nc3nccs3)ccc21 [Example 205, 4-(2-methoxyphenyl)-N-(thiazol-2-yl)-3,4-dihydro-2H-benzo[b][1,4]oxazine-7-sulfonamide]	38	382	> 10000	–
O=S(=O)(Nc1nccs1)c1ccc2c(c1)OCCN2Cc1ccccc1 [Example 220, 4-Benzyl-N-(Thiazol-2-Yl)-3,4-Dihydro-2H-Benzo[B][1,4]Oxazine-7-Sulfonamide]	864	17200	> 10000	–
O=S(=O)(Nc1nncs1)c1ccc2c(c1)OCCN2c1ccc(C(F)(F)F)cc1Cl [Example 28, 4-(2-Chloro-4-(Trifluoromethyl)Phenyl)-N-(1,3,4-Thiadiazol-2-Yl)-3,4-Dihydro-2H-Benzo[B][1,4]Oxazine-7-Sulfonamide]	656	2650	> 10000	–
O=S(=O)(Nc1ncns1)c1ccc2c(c1)OCCN2c1ccc(C(F)(F)F)cc1C1=CCNCC1 [Example 7, 4-(2-(1,2,3,6-Tetrahydropyridin-4-Yl)-4-(Trifluoromethyl)Phenyl)-N-(1,2,4-Thiadiazol-5-Yl)-3,4-Dihydro-2H-Benzo[B][1,4]Oxazine-7-Sulfonamide]	4.4	23.7	349	–
